The values below come from US20250084177A1, “ANTI-CD98 ANTIBODIES AND USES THEREOF” (HUAHUI HEALTH LTD., priority 2021, published 2025).

The structures appear in SMILES notation.

This experiment deals with T1, LAT1/CD98 heterodimer HAT complex (Homo sapiens, UniProt P08195+Q01650).
T1 construct: in the tumor cell lines earlier found to be highly sensitive to S1-F4 treatment; endogenous in cells
Put plainly: Amino acid (HPG) uptake assay. The format is cell-based. Particulars: HepG2 and Raji cells; antibody 15 μg/ml, BCH 10 mM. The procedure:
Cells were incubated with 15 μg/ml antibody for 24 hr in growth medium. Then they were equilibrated for 30 min at 37° C. with Met-free DMEM. HPG (Thermo Fisher Scientific) was added to the cells at a final concentration of 70 μM. […] After 2-3 hr, cells were washed with PBS and lysed with lysis buffer (1% SDS in 50 mM Tris-HCL, pH 8.0) with complete protease inhibitors (Roche). HPG in cell lysis was biotinylated according to manufacturer instructions (Thermo Fisher Scientific). Then cell lysis was transferred into 96 well plate (Nunc, MaxiSorp™) and incubated at 4° C. overnight. The amount of HGP in cell lysates was then detected by streptavidin-HRP (Thermo Fisher Scientific) in an ELISA-based assay.
Amino acid uptake assay was conducted to analyze the effect of S1-F4 in amino acid transport. L-Homopropargylglycine (HPG), a methionine mimic, was used as a traceable substrate for the LAT1 (L-type/large neutral amino acid transporter 1)/CD98 heterodimer HAT complex, and the LAT1/CD98 complex inhibitor BCH (2-amino-2-norbornane-carboxylic acid) was used as a positive control for disrupting transport function.

T1 sequence (P08195 103-630 limits assumed): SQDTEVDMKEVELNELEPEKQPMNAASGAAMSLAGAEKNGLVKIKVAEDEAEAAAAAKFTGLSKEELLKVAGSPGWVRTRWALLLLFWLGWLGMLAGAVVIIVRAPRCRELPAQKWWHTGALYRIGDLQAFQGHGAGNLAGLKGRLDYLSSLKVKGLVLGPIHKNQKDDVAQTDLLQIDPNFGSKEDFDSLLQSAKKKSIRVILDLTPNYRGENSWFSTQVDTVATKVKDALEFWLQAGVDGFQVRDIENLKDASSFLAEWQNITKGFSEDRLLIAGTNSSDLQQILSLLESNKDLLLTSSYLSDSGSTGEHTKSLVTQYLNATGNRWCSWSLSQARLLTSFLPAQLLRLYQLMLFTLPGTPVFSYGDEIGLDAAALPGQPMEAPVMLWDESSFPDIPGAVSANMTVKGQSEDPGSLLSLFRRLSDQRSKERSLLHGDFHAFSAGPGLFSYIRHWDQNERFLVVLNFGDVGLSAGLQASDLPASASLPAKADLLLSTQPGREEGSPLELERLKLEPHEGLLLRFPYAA
T1 sequence (Q01650 whole entry): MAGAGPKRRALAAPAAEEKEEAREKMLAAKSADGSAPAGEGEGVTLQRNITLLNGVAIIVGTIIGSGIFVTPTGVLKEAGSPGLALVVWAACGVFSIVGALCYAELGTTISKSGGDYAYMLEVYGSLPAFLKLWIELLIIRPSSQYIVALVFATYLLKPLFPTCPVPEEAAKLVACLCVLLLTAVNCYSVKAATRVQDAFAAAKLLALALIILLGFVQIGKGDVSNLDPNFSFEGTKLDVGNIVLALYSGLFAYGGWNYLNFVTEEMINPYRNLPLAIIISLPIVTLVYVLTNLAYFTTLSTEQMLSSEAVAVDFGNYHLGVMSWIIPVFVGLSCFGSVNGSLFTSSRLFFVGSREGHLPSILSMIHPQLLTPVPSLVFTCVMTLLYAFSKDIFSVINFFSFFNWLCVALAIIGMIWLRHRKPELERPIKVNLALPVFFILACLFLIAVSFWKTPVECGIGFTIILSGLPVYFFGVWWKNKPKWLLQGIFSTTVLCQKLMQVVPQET

As to `NC1(C(=O)O)CC2CCC1C2` (stereo not shown) [BCH, 2-amino-2-norbornane-carboxylic acid], the “HPG uptake / HAT complex transport activity” value is reported as “impaired HAT complex transport activity”.
